Laboratory results reported in patent US12195755B2, “Placental lipid bilayer for cell-free molecular interaction studies” (priority 2019, dated 2025).

Key:
[1] = Parallel artificial membrane permeability assay (PAMPA) with suspended lipid bilayers; type: in vitro ADME, human; conditions: 0.1 mg/mL amphotericin B
Procedure: “Parallel artificial membrane permeability assay” (PAMPA) is a method that determines the permeability of substances from a donor compartment, through a lipid-infused artificial membrane into an acceptor compartment. A multi-well microtiter plate is used for the donor, and a membrane/acceptor compartment is placed on top. The whole assembly is referred to in the heterogeneous membrane art as a “sandwich.” Initially, the drug is added to the donor compartment, and the acceptor compartment is drug-free. After an incubation period, which may include stirring, the sandwich is separated, and the drug is measured in each compartment. Techniques including but not limited to absorbance measurements allow calculation of the drug that remains in the membrane.
Using a parallel artificial permeability assay (PAMPA) with suspended lipid bilayers, polyvinylidene difluoride (PVDF) 96-well multiscreen filter plates ([…]) and transport receiver plates (Millipore-Sigma, Burlington, MA, USA), the inventors investigate DEHP, amphotericin B, and amBisome® diffusion from a donor compartment, through the porous membrane treated with lipid, to an acceptor compartment. The maximum absorbance for DEHP, amphotericin B, and amBisome® was measured using a plate reader and determined to be 280 nm, 340 nm, and 320 nm, respectively. […]

[2] = cited from earlier work
keratinocytes = conditions: cited from earlier work

C[C@@H]1[C@H](O)[C@@H](C)/C=C/C=C/C=C/C=C/C=C/C=C/C=C/[C@H](O[C@@H]2O[C@H](C)[C@@H](O)[C@H](N)[C@@H]2O)C[C@@H]2O[C@](O)(C[C@@H](O)C[C@@H](O)[C@H](O)CC[C@@H](O)C[C@@H](O)CC(=O)O[C@H]1C)C[C@H](O)[C@H]2C(=O)O [amphotericin B]
interaction with suspended trophoblast bilayers compared to amBisome® [1]: interacts less
interaction with suspended trophoblast bilayers compared to amBisome® ([1]; listed as Amphotericin B): interacted more

CCCCC(CC)COC(=O)c1ccccc1C(=O)OCC(CC)CCCC (centres unmarked) [DEHP, di(2-ethylhexyl) phthalate]
risk for miscarriage ([2]; higher concentrations of phthalates): increases the risk for miscarriage
more likely to lose a pregnancy compared to women with lower levels ([2]; women exposed to high concentrations): 60%

CNC(=O)Oc1cccc2c1OC(C)(C)C2 [Carbofuran, carbofuran]
toxicity against keratinocytes (keratinocytes): toxic
